{
  "source": "ChEMBL document CHEMBL3132769",
  "about": "“Fragment growing to retain or alter the selectivity of anchored kinase hinge-binding fragments” (Medchemcomm, 2014)",
  "key": {"[1]": {"target": "Epidermal growth factor receptor (Homo sapiens) (UniProt P00533)", "sequence (P00533 whole entry, the tested form may be a part)": "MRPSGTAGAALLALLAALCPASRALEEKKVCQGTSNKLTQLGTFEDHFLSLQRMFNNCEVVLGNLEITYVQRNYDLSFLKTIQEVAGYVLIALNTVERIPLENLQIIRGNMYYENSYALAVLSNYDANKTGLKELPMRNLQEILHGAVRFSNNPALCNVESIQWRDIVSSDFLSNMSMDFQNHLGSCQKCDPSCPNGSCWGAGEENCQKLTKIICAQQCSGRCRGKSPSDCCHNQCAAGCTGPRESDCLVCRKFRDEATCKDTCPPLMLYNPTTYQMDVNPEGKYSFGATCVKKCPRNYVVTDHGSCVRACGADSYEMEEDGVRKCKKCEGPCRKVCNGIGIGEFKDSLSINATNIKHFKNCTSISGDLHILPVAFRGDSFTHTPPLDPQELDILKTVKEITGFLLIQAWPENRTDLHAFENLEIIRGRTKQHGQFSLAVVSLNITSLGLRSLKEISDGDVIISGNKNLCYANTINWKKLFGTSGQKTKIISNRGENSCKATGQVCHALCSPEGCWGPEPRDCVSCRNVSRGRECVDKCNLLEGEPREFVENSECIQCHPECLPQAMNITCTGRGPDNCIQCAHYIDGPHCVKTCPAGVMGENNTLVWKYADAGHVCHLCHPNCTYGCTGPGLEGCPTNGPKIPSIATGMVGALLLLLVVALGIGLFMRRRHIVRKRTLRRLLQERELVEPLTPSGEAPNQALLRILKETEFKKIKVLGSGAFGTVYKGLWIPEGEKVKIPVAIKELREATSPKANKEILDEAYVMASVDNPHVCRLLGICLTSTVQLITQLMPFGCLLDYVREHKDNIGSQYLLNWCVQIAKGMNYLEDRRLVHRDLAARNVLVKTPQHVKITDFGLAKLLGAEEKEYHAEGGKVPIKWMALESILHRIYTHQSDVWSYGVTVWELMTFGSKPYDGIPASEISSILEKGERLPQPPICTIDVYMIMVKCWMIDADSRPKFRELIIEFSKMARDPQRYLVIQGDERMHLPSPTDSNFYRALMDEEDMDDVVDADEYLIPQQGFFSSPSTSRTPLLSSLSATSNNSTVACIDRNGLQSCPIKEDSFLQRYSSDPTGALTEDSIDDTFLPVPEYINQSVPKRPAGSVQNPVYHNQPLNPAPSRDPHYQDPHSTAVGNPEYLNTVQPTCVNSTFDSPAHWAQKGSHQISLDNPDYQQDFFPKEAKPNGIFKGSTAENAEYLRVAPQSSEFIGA", "test": "Inhibition of human EGFR catalytic domain expressed in baculovirus assessed as substrate phosphorylation using fluorescence-labelled peptides as substrate at 95 uM after 90 mins by microfluidic peptide phosphorylation assay"}, "[2]": {"target": "Receptor-type tyrosine-protein kinase FLT3 (Homo sapiens) (UniProt P36888)", "sequence (P36888 whole entry, the tested form may be a part)": "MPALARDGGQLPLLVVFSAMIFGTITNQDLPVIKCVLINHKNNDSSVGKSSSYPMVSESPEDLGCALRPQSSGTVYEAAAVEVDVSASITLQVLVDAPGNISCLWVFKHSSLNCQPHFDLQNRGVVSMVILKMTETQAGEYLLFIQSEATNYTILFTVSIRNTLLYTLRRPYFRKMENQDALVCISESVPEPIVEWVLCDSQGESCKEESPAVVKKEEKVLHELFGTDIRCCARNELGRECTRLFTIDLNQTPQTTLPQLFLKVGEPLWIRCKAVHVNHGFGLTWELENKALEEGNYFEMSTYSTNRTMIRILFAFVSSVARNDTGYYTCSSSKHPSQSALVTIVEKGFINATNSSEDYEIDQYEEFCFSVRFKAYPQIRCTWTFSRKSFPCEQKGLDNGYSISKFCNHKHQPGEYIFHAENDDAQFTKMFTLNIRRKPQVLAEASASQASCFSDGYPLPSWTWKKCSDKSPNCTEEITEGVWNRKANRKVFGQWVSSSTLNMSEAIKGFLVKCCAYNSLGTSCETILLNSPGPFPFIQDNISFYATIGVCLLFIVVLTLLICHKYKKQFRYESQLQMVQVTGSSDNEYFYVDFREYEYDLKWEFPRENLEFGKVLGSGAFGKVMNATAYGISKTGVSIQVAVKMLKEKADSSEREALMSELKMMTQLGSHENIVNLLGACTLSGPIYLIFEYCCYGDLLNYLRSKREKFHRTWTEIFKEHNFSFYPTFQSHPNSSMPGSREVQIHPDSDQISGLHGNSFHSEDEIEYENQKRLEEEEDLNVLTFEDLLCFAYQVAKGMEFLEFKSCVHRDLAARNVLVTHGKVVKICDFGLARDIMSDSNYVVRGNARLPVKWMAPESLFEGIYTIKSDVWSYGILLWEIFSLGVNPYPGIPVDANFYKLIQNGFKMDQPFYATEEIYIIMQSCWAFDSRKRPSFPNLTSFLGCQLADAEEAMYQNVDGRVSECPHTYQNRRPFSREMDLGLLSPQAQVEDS", "test": "Inhibition of human FLT3 catalytic domain expressed in baculovirus assessed as substrate phosphorylation using fluorescence-labelled peptides as substrate at 95 uM after 90 mins by microfluidic peptide phosphorylation assay"}, "[3]": {"target": "MAP kinase-activated protein kinase 3 (Homo sapiens) (UniProt Q16644)", "sequence (Q16644 whole entry, looked up)": "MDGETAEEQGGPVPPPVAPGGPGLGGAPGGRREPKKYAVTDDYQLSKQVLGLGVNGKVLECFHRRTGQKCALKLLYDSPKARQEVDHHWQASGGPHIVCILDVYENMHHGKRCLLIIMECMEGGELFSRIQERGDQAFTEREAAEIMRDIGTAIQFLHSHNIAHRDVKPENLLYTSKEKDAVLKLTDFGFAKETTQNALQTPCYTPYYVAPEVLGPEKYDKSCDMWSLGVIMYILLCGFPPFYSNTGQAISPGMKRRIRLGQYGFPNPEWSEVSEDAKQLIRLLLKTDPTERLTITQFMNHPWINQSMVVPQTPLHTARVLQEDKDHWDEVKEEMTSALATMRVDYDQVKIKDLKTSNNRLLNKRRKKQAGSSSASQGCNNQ", "test": "Inhibition of human full length MAPKAPK3 expressed in Escherichia coli cell assessed as substrate phosphorylation using fluorescence-labelled peptides as substrate at 0.06 uM after 90 mins by microfluidic peptide phosphorylation assay"}, "[4]": {"target": "Ribosomal protein S6 kinase alpha-1 (Homo sapiens) (UniProt Q15418)", "sequence (Q15418 whole entry)": "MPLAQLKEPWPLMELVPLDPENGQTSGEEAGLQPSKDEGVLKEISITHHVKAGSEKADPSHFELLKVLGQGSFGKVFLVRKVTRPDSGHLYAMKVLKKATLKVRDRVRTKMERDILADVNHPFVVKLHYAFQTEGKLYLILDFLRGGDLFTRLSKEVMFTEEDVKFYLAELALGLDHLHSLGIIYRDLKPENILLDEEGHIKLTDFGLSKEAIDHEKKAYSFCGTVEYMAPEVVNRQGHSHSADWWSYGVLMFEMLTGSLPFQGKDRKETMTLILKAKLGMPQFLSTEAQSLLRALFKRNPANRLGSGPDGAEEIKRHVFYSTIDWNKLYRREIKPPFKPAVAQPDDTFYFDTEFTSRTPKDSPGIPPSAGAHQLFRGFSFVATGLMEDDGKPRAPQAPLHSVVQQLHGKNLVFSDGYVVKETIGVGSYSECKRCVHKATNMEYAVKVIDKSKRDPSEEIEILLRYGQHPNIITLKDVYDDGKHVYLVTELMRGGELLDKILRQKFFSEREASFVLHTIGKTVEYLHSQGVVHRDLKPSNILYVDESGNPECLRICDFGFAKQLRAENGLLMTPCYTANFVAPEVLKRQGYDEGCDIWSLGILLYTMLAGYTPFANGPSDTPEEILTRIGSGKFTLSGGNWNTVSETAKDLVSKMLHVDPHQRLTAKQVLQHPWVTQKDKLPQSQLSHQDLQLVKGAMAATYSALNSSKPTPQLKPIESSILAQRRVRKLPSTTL", "test": "Inhibition of human full length RSK1 expressed in baculovirus assessed as substrate phosphorylation using fluorescence-labelled peptides as substrate at 0.1 uM after 90 mins by microfluidic peptide phosphorylation assay"}, "[5]": {"target": "T1, Serine/threonine-protein kinase BRSK1 (Homo sapiens) (UniProt Q8TDC3)", "T1 sequence (whole entry)": "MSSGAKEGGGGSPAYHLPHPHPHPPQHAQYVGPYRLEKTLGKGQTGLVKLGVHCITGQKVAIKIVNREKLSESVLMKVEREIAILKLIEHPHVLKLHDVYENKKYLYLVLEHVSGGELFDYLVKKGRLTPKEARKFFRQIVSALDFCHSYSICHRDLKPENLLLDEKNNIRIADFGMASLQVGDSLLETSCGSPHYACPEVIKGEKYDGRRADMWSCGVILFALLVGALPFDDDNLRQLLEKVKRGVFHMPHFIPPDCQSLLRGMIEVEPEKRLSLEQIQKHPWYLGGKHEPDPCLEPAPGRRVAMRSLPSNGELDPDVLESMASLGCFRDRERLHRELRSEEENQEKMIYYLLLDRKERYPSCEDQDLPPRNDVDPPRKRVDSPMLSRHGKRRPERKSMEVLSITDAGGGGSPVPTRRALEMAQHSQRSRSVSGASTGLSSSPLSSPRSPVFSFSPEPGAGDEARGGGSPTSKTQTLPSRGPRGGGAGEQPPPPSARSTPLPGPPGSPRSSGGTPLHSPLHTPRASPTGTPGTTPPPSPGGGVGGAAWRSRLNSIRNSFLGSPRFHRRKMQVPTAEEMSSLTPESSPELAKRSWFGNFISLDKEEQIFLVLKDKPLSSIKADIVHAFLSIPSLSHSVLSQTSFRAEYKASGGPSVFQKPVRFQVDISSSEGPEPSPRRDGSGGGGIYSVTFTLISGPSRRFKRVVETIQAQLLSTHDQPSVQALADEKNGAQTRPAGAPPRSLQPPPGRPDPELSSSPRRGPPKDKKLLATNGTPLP", "test": "Inhibition of human full length BRSK1 expressed in baculovirus assessed as substrate phosphorylation using fluorescence-labelled peptides as substrate at 420 uM after 90 mins by microfluidic peptide phosphorylation assay"}, "Homo sapiens": {"species_on_record": "Homo sapiens", "test": "Inhibition of human P70S6K catalytic domain expressed in baculovirus assessed as substrate phosphorylation using fluorescence-labelled peptides as substrate at 420 uM after 90 mins by microfluidic peptide phosphorylation assay"}, "[6]": {"target": "Fibroblast growth factor receptor 3 (Homo sapiens) (UniProt P22607)", "test": "Inhibition of human FGFR3 catalytic domain expressed in baculovirus assessed as substrate phosphorylation using fluorescence-labelled peptides as substrate at 70 uM after 90 mins by microfluidic peptide phosphorylation assay"}, "[7]": {"target": "Aurora kinase B (Homo sapiens) (UniProt Q96GD4)", "sequence (Q96GD4 whole entry)": "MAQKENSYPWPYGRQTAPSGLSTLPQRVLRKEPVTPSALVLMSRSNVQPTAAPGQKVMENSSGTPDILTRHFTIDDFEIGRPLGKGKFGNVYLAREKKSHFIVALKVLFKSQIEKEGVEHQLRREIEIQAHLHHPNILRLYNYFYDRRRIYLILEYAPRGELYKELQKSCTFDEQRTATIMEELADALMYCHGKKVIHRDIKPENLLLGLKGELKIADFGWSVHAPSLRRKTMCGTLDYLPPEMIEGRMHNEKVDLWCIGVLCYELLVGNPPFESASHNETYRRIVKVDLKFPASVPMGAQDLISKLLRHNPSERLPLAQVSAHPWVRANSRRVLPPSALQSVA", "test": "Inhibition of human full length AurB expressed in baculovirus assessed as substrate phosphorylation using fluorescence-labelled peptides as substrate at 70 uM after 90 mins by microfluidic peptide phosphorylation assay"}, "[8]": {"target": "T2, Serine/threonine-protein kinase BRSK2 (Homo sapiens) (UniProt Q8IWQ3)", "T2 sequence (whole entry)": "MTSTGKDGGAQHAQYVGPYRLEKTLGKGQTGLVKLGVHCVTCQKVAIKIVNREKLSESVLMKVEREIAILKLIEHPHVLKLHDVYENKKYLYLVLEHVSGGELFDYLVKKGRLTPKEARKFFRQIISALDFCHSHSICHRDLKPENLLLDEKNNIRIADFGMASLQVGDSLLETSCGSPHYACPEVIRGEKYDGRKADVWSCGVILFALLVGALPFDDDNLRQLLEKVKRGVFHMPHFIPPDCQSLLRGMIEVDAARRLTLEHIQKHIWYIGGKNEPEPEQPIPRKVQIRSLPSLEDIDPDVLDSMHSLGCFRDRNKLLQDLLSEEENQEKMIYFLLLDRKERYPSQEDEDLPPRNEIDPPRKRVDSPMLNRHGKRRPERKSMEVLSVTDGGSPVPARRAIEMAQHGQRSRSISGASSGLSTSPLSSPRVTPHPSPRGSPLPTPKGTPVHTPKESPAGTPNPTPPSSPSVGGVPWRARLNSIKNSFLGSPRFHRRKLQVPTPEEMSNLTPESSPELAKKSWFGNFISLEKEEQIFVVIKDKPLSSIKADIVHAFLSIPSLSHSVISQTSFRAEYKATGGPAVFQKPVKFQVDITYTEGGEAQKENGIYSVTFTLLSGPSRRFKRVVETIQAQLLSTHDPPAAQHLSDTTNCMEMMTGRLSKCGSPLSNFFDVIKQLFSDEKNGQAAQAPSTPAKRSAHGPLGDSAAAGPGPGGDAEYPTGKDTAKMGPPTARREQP", "test": "Inhibition of human truncated BRSK2 expressed in baculovirus assessed as substrate phosphorylation using fluorescence-labelled peptides as substrate at 70 uM after 90 mins by microfluidic peptide phosphorylation assay"}, "[9]": {"target": "Protein kinase C alpha type (Homo sapiens) (UniProt P17252)", "test": "Inhibition of human truncated PKC alpha expressed in baculovirus assessed as substrate phosphorylation using fluorescence-labelled peptides as substrate at 2 uM after 90 mins by microfluidic peptide phosphorylation assay"}, "[10]": {"system": "Tyrosine-protein kinase ABL1 (Homo sapiens), P00519 [T315I]", "test": "Inhibition of human truncated ABL T315I mutant expressed in baculovirus assessed as substrate phosphorylation using fluorescence-labelled peptides as substrate at 8 uM after 90 mins by microfluidic peptide phosphorylation assay"}, "[11]": {"target": "Proto-oncogene tyrosine-protein kinase Src (Homo sapiens) (UniProt P12931)", "test": "Inhibition of human full length SRC expressed in baculovirus assessed as substrate phosphorylation using fluorescence-labelled peptides as substrate at 1000 uM after 90 mins by microfluidic peptide phosphorylation assay"}, "[12]": {"target": "Hepatocyte growth factor receptor (Homo sapiens) (UniProt P08581)", "sequence (P08581 whole entry, the tested form may be a part)": "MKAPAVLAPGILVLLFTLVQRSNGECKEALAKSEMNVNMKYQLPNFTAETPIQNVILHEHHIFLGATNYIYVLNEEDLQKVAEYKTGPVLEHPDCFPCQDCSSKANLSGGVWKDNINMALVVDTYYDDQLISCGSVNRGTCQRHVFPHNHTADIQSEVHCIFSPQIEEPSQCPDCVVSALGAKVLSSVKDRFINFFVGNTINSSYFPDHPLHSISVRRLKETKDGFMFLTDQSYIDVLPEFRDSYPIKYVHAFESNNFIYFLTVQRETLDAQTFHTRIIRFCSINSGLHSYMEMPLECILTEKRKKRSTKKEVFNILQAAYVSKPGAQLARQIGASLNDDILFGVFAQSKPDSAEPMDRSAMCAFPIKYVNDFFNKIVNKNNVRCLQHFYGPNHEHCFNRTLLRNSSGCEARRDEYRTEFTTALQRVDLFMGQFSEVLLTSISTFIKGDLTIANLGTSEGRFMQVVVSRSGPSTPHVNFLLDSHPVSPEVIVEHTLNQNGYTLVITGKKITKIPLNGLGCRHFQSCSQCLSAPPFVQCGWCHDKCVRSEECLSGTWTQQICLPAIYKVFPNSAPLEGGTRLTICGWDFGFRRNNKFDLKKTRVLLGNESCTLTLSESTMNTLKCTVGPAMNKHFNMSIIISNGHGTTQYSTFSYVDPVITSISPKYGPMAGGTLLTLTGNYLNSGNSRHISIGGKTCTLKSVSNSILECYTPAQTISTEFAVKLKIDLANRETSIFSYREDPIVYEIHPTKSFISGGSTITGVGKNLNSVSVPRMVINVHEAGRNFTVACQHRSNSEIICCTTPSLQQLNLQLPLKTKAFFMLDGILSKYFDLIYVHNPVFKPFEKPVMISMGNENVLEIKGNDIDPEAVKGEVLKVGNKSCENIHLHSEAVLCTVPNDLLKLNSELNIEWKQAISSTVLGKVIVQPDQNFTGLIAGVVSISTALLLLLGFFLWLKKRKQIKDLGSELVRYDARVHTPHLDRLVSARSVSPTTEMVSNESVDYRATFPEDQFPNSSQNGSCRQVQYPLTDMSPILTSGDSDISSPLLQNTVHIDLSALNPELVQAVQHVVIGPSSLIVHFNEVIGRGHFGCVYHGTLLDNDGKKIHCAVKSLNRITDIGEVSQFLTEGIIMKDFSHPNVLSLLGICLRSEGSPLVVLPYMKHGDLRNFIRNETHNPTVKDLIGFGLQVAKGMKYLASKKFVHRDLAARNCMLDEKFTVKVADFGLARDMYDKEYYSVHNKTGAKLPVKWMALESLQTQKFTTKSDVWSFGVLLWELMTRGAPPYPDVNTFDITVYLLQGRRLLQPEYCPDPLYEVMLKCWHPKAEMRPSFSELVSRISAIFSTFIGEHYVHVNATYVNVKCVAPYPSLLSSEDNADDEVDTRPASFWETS", "test": "Inhibition of human MET cytoplasmic domain expressed in baculovirus assessed as substrate phosphorylation using fluorescence-labelled peptides as substrate at 1000 uM after 90 mins by microfluidic peptide phosphorylation assay"}, "[13]": {"target": "T1, Serine/threonine-protein kinase BRSK1 (Homo sapiens)", "settings": "1000 uM", "description": "Inhibition of human full length BRSK1 expressed in baculovirus assessed as substrate phosphorylation using fluorescence-labelled peptides as substrate at 1000 uM after 90 mins by microfluidic peptide phosphorylation assay"}},
  "data": [
    {"smiles": "NCCc1ccc(-c2ncnc3[nH]cnc23)cc1", "values": [
      {"measurement": "inhibition", "setting": "[1]", "result": 19.5, "unit": "%"},
      {"measurement": "inhibition", "setting": "[2]", "result": 49.5, "unit": "%"}
    ]},
    {"smiles": "NC1(Cc2ccc(Cl)cc2)CCN(c2ncnc3[nH]ccc23)CC1", "values": [
      {"measurement": "inhibition", "setting": "[3]", "result": 7, "unit": "%"}
    ]},
    {"smiles": "C[C@H](CN(C)C)Oc1nc(Nc2cc3cccc(Cl)c3cn2)cnc1C#N", "values": [
      {"measurement": "inhibition", "setting": "[4]", "result": 48.5, "unit": "%"}
    ]},
    {"smiles": "c1nc(N2CCOCC2)c2nc[nH]c2n1", "values": [
      {"measurement": "inhibition", "setting": "[5]", "result": 51.5, "unit": "%"},
      {"measurement": "inhibition", "setting": "Homo sapiens", "result": 84.5, "unit": "%"}
    ]},
    {"smiles": "CNCc1ccc(-c2ncnc3[nH]cnc23)cc1", "values": [
      {"measurement": "inhibition", "setting": "[6]", "result": 27.5, "unit": "%"},
      {"measurement": "inhibition", "setting": "[7]", "result": 85, "unit": "%"},
      {"measurement": "inhibition", "setting": "[8]", "result": 43, "unit": "%"}
    ]},
    {"smiles": "NC1CCN(c2ncnc3[nH]ccc23)CC1", "values": [
      {"measurement": "inhibition", "setting": "[9]", "result": 18, "unit": "%"}
    ]},
    {"smiles": "NCC1CCN(c2ncnc3[nH]ccc23)CC1", "values": [
      {"measurement": "inhibition", "setting": "[10]", "result": 53, "unit": "%"}
    ]},
    {"smiles": "c1cnc2[nH]ccc2c1", "values": [
      {"measurement": "inhibition", "setting": "[11]", "result": 28.5, "unit": "%"},
      {"measurement": "inhibition", "setting": "[12]", "result": 55, "unit": "%"},
      {"measurement": "inhibition", "setting": "[13]", "result": 22, "unit": "%"}
    ]}
  ]
}
